Laboratory results as given in US20060148683A1, “Detection and treatment of intravascular lesions” (priority 2001, published 2006).
Like-named read-outs stand apart in the source and are kept apart here. Starred links: 1 amine or outer side, 2 acyl side, 3 side chain; linkers in the order of their positions; H or OH if unused. Positions of bridges follow the written chain, without caps; N, C: chain ends. Non-standard residues stand in square brackets, D forms with d. Residues, ends and D or L forms follow the SMILES beside them. Groups on a side chain read outwards from the residue. ξ: configuration not given here. *: point of attachment. NH(Fluorescein-5-yl) = O=C1OC2(c3ccc(O)cc3Oc3cc(O)ccc32)c2ccc(N*)cc21; Tyr(3-I) = N[C@@H](Cc1ccc(O)c(I)c1)C(=O)O; Mca = COc1ccc2c(CC(=O)*)cc(=O)oc2c1; Hyp = O=C(O)[C@@H]1C[C@@H](O)CN1; Ile(3ξ) = CCC(C)[C@H](N)C(=O)O; CO = O=C([*:1])[*:2]; Ahx = NCCCCCC(=O)O; βAla = NCCC(=O)O

Target: T1, DD(E) fragment of fibrin (Homo sapiens, UniProt P02671+P02675+P02679, DEL433-453)
T1 construct: complex of the crosslinked D domains of adjacent fibrin monomers with the central E domain of fibrin
T1 sequence (P02671 130-216 limits assumed, stated change not applied): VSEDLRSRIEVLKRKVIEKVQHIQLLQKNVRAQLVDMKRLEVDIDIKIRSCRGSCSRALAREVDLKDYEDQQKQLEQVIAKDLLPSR
T1 sequence (P02671 36-97 limits assumed, stated change not applied): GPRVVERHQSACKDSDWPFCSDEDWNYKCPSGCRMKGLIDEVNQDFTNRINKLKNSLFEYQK
T1 sequence (P02675 164-491 limits assumed, stated change not applied): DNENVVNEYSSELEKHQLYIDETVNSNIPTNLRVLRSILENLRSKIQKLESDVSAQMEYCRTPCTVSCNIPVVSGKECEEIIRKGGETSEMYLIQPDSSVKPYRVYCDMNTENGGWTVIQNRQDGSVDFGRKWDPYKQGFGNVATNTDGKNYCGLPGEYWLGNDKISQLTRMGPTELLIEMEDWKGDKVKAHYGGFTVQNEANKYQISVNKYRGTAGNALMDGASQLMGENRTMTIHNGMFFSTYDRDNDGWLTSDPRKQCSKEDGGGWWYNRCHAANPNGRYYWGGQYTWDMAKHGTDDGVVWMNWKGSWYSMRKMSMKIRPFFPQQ
T1 sequence (P02675 45-152 limits assumed, stated change not applied): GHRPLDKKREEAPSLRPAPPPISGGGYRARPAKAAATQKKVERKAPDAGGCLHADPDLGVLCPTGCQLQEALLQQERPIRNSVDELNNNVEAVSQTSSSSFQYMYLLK
T1 sequence (P02679 114-432 limits assumed, stated change not applied): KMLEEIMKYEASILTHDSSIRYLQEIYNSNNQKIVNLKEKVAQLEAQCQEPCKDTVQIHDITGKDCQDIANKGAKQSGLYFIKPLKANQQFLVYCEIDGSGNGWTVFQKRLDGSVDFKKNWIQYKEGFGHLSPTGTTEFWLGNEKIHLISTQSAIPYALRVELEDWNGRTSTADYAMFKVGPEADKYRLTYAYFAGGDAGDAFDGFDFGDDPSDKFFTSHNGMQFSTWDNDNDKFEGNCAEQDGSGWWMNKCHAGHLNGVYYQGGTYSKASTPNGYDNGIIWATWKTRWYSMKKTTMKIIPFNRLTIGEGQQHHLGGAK
T1 sequence (P02679 27-88 limits assumed, stated change not applied): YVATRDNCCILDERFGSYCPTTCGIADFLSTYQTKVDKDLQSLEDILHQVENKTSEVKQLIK
Experiment: Dissociation constant (Kd) of optical agent for DD(E) fragment of fibrin
Type: binding
Excerpt: Optical agents of the invention include an OD and a FBM covalently bound to each other, either directly or via a linker (OD-L-FBM). The FBM can be a small molecule or a peptide. As used herein, the term “peptide” refers to a chain of amino acids that is about 2 to about 75 amino acids in length (e.g., 3 to 50 amino acids). Affinity of a peptide for fibrin can be expressed in terms of its dissociation constant (Kd), which is the equilibrium constant for the dissociation reaction of the peptide from the DD(E) fragment of fibrin. The term “DD(E) fragment of fibrin” refers to a fibrin subcomponent generated by proteolytic degradation of fibrin with plasmin or trypsin. The DD(E) fragment is a complex of the crosslinked D domains of adjacent fibrin monomers with the central E domain of fibrin (See, for example, Spraggon et al., Nature 389:455462 (1997)). Since DD(E) is a product resulting from the proteolysis of fibrin, one of skill in the art will understand that there may be some slight heterogeneity in its composition. The DD(E) fragment can be biotinylated and immobilized via avidin to a solid substrate (e.g., a multi-well plate). Peptides can be incubated with the immobilized DD(E) fragment in a suitable buffer and binding detected using known methodology. Methods for determining the dissociation constant of the peptide for DD(E) are set forth in WO 01/09188.
As a result of the FBM having affinity for fibrin, the optical agent also has affinity for fibrin. The term “affinity” refers to the capacity of the optical agent to be taken up by, retained by, or bound to the fibrin in the lesion. The affinity of an optical agent can be expressed in terms of its Kd, which is the equilibrium constant for the dissociation reaction of the optical agent from fibrin, and determined as discussed above for the peptide. The dissociation constant of the optical agent for DD(E) can have a value less than about 10 μM (e.g., 0.1 μM to 10 μM). In one embodiment, the dissociation constant value is less than about 5 μM. In another embodiment, the dissociation constant value is less than about 1 μM. The dissociation constant also may have a value less than about 0.3 μM (e.g., 0.2 μM).
In the methods of the present invention, the optical agent forms a fibrin-optical agent complex at the site of the lesion. The ability of the optical agent to form a fibrin-optical agent complex may be measured by examining the optical agent's dissociation constant (Kd) for a DD(E) fragment of fibrin as discussed above.

[1] = 24° C., read-out: Kd (μM) vs. DD(E) @ 24° C.

Row | Kd (read-out: Kd vs. DD(E)) [µM] | SMILES | Kd [1] [µM]
1 |  | CC[C@H](C)[C@H](NC(=O)[C@H](Cc1c[nH]cn1)NC(=O)[C@@H]1CSSC[C@H](NC(=O)[C@H](Cc2c[nH]cn2)NC(=O)[C@H](Cc2ccccc2)NC(=O)CNC(=O)CNC(=O)CCCCCNC(=O)Nc2ccc3c(c2)C(=O)OC32c3ccc(O)cc3Oc3cc(O)ccc32)C(=O)N2C[C@H](O)C[C@H]2C(=O)N[C@@H](Cc2ccc(O)c(I)c2)C(=O)N[C@@H](CC(=O)O)C(=O)N[C@@H](CC(C)C)C(=O)N1)C(=O)N[C@@H](CC(C)C)C(N)=O [Structure V] ({NH(Fluorescein-5-yl)-CO-Ahx}-GGFHC[Hyp][Tyr(3-I)]DLCHIL-NH2; disulfide 5-10) | 0.09
2 |  | CC[C@H](C)[C@H](NC(=O)[C@H](Cc1c[nH]cn1)NC(=O)[C@@H]1CSSC[C@H](NC(=O)[C@H](Cc2c[nH]cn2)NC(=O)[C@H](Cc2ccccc2)NC(=O)CCCCCNC(=O)Nc2ccc3c(c2)C(=O)OC32c3ccc(O)cc3Oc3cc(O)ccc32)C(=O)N2C[C@H](O)C[C@H]2C(=O)N[C@@H](Cc2ccc(O)c(I)c2)C(=O)N[C@@H](CC(=O)O)C(=O)N[C@@H](CC(C)C)C(=O)N1)C(=O)N[C@@H](CC(C)C)C(N)=O [Structure II] ({NH(Fluorescein-5-yl)-CO-Ahx}-FHC[Hyp][Tyr(3-I)]DLCHIL-NH2; disulfide 3-8) | 0.1
3 |  | CC[C@H](C)[C@H](NC(=O)[C@H](Cc1c[nH]cn1)NC(=O)[C@@H]1CSSC[C@H](NC(=O)[C@H](Cc2c[nH]cn2)NC(=O)[C@H](Cc2ccccc2)NC(=O)[C@H](Cc2c[nH]c3ccccc23)NC(=O)CCCCCNC(=O)Nc2ccc3c(c2)C(=O)OC32c3ccc(O)cc3Oc3cc(O)ccc32)C(=O)N2C[C@H](O)C[C@H]2C(=O)N[C@@H](Cc2ccc(O)c(I)c2)C(=O)N[C@@H](CC(=O)O)C(=O)N[C@@H](CC(C)C)C(=O)N1)C(=O)N[C@@H](CC(C)C)C(N)=O [Structure IV] ({NH(Fluorescein-5-yl)-CO-Ahx}-WFHC[Hyp][Tyr(3-I)]DLCHIL-NH2; disulfide 4-9) | 0.06
4 | 0.2 | CCC(C)[C@H](NC(=O)[C@H](Cc1c[nH]c2ccccc12)NC(=O)[C@@H]1CSSC[C@H](NC(=O)[C@H](CCC(=O)O)NC(=O)[C@H](Cc2c[nH]c3ccccc23)NC(=O)[C@@H](CCC(N)=O)NC(=O)CCCCCNC(=O)Cc2cc(=O)oc3cc(OC)ccc23)C(=O)N2CCC[C@H]2C(=O)N[C@@H](Cc2ccc(O)cc2)C(=O)NCC(=O)N[C@@H](CC(C)C)C(=O)N1)C(=O)N[C@@H](CCC(N)=O)C(N)=O (some centres unmarked) [Structure XIII] ({Mca-Ahx}-[dQ]WECPYGLCW[Ile(3ξ)]Q-NH2; disulfide 4-9) | 
5 | 6.6 | COc1ccc2c(CC(=O)NCCCCCC(=O)N[C@@H](CC(C)C)C(=O)N3CCC[C@H]3C(=O)N[C@H]3CSSC[C@@H](C(=O)N[C@@H](CC(C)C)C(=O)N[C@@H](CC(=O)O)C(N)=O)NC(=O)[C@H](C(C)O)NC(=O)CNC(=O)[C@H](Cc4ccc(O)cc4)NC(=O)[C@H](Cc4ccc(O)cc4)NC(=O)[C@H](CC(=O)O)NC3=O)cc(=O)oc2c1 (some centres unmarked) [Structure XII] | 
6 |  | CC[C@H](C)[C@H](NC(=O)[C@H](Cc1c[nH]cn1)NC(=O)[C@@H]1CSSC[C@H](NC(=O)[C@H](Cc2c[nH]cn2)NC(=O)[C@H](Cc2ccccc2)NC(=O)CNC(=O)CCCCCNC(=O)Nc2ccc3c(c2)C(=O)OC32c3ccc(O)cc3Oc3cc(O)ccc32)C(=O)N2C[C@H](O)C[C@H]2C(=O)N[C@@H](Cc2ccc(O)c(I)c2)C(=O)N[C@@H](CC(=O)O)C(=O)N[C@@H](CC(C)C)C(=O)N1)C(=O)N[C@@H](CC(C)C)C(N)=O [Structure III] ({NH(Fluorescein-5-yl)-CO-Ahx}-GFHC[Hyp][Tyr(3-I)]DLCHIL-NH2; disulfide 4-9) | 0.1
7 |  | CC[C@H](C)[C@H](NC(=O)[C@H](Cc1c[nH]cn1)NC(=O)[C@@H]1CSSC[C@H](NC(=O)[C@H](Cc2c[nH]cn2)NC(=O)[C@H](Cc2ccccc2)NC(=O)CCNC(=O)Nc2ccc3c(c2)C(=O)OC32c3ccc(O)cc3Oc3cc(O)ccc32)C(=O)N2C[C@H](O)C[C@H]2C(=O)N[C@@H](Cc2ccc(O)c(I)c2)C(=O)N[C@@H](CC(=O)O)C(=O)N[C@@H](CC(C)C)C(=O)N1)C(=O)N[C@@H](CC(C)C)C(N)=O [Structure I] ({NH(Fluorescein-5-yl)-CO-βAla}-FHC[Hyp][Tyr(3-I)]DLCHIL-NH2; disulfide 3-8) | 0.1
8 |  | CC[C@H](C)[C@H](NC(=O)[C@H](Cc1c[nH]cn1)NC(=O)[C@@H]1CSSC[C@H](NC(=O)[C@H](Cc2c[nH]cn2)NC(=O)[C@H](Cc2ccccc2)NC(=O)CNC(=O)CNC(=O)[C@@H](N)CCCCNC(=O)Nc2ccc3c(c2)C(=O)OC32c3ccc(O)cc3Oc3cc(O)ccc32)C(=O)N2C[C@H](O)C[C@H]2C(=O)N[C@@H](Cc2ccc(O)c(I)c2)C(=O)N[C@@H](CC(=O)O)C(=O)N[C@@H](CC(C)C)C(=O)N1)C(=O)N[C@@H](CC(C)C)C(N)=O [Structure IX] (H-K([CO-NH(Fluorescein-5-yl)])GGFHC[Hyp][Tyr(3-I)]DLCHIL-NH2; disulfide 6-11) | 0.1
